Test results as given in patent publication US20140303216A1, “COMPOSITIONS AND METHODS FOR INDUCING DISRUPTION OF BLOOD VASCULATURE AND FOR REDUCING ANGIOGENESIS” (BOARD OF REGENTS, THE UNIVERSITY OF TEXAS SYSTEM, priority 2011, published 2014).

How the values were obtained:
Xenopus embryos = experiment: Xenopus embryo morphology and developmental defects; type: in vivo
Excerpt: Female adult Xenopus were ovulated by injections of human chorionic gonadotropin, and eggs were fertilized in vitro and dejellied in 3% cysteine (pH 7.9) and subsequently reared in 1⁄3×Marc's modified Ringer's (MMR) solution. For microinjections, embryos were placed in a solution of 2% Ficoll in 1⁄3×MMR solution, injected using forceps and an Oxford universal manipulator, reared in 2% Ficoll in 1⁄3×MMR to stage 9, then washed and reared in 1⁄3×MMR solution alone. For bilateral rab11b knock-down experiments, the posterior cardinal vein and intersomitic veins were targeted by injecting Morpholino antisense oligonucleotides (MOs) into the two ventral cells equatorially at the four-cell stage. For unilateral knockdown, only one ventral cell was injected. MOs were injected at 40 ng per blastomere. For the experiments to see the drug effects, embryos were placed in a solution of each chemical dissolved in 1% DMSO diluted in 1⁄3×MMR during indicated stages. For bead micro-surgery implantation, Affi-Gel Blue Gel beads (Bio-Rad) were soaked with 0.7 mg/ml recombinant mouse VEGF 164 aa (R&D systems) or BSA as a control. Whole-mount in situ hybridization for […] performed as described^29. Immunostaining for Xenopus was performed as previously described (Lee et al., 2008). Embryos at stage 35-36 were fixed in 1×MEMFA. 12/101 (1:500; DSHB), and primary antibodies were detected with Alexa Fluor-488 or 555 goat anti-mouse Immunoglobulin (IgG).

[1] = test system: vasculature within kdr:GFP frogs; experiment: Time-lapse fluorescence microscopy of vasculature in kdr:GFP Xenopus embryos; type: in vivo, Xenopus laevis
Excerpt: Immunohistochemistry and kdr:GFP transgenic Xenopus laevis were imaged on an inverted Zeiss LSM5 Pascal confocal microscope and Zeiss 5-LIVE Fast Scanning confocal microscope. Confocal images were processed and cropped in Imaris software (BITPLANE) and Adobe Illustrator and Adobe Photoshop for compilation of Figures.
(§1) To analyze action of TBZ precisely on inhibition of angiogenesis and disruption of vasculature, we tested TBZ on two different developmental stages. Xenopus late tailbud embryos at stage 31 were selected for testing the inhibitory effect of TBZ on angiogenesis (FIG. 3A-D). This embryonic stage coincides with the onset of intersomitic vein (ISV) angiogenesis, the process of forming smaller blood vessels by sprouting from pre-existing blood vessels. To observe disruption of existing vasculature, we selected stage 35/36 embryos in which the posterior cardinal vein (PCV) and ISV are already developed (FIG. 15).
As a direct test of the vascular disrupting activity of TBZ, we performed time-lapse imaging of developing vasculature. Using Kdr-GFP transgenic embryos^12 and time-lapse confocal microscopy^22, we could effectively image developing vasculature in vivo for periods of up 20 hours. During this time, the growth of existing blood vessels and the sprouting of new vasculature could be easily followed (FIG. 16). […] Upon longer exposures, endothelial cells scattered and many underwent dramatic rounding (FIGS. 5A, 17).

[2] = test system: developing Xenopus embryos; experiment: Xenopus embryo angiogenesis, in situ hybridization for erg/apinr and kdr:GFP imaging; type: in vivo, Xenopus laevis
Excerpt: Female adult Xenopus were ovulated by injections of human chorionic gonadotropin, and eggs were fertilized in vitro and dejellied in 3% cysteine (pH 7.9) and subsequently reared in ⅓×Marc's modified Ringer's (MMR) solution. For microinjections, embryos were placed in a solution of 2% Ficoll in ⅓×MMR solution, injected using forceps and an Oxford universal manipulator, reared in 2% Ficoll in ⅓×MMR to stage 9, then washed and reared in ⅓×MMR solution alone. For bilateral rab11b knock-down experiments, the posterior cardinal vein and intersomitic veins were targeted by injecting Morpholino antisense oligonucleotides (MOs) into the two ventral cells equatorially at the four-cell stage. For unilateral knockdown, only one ventral cell was injected. MOs were injected at 40 ng per blastomere. For the experiments to see the drug effects, embryos were placed in a solution of each chemical dissolved in 1% DMSO diluted in ⅓×MMR during indicated stages. For bead micro-surgery implantation, Affi-Gel Blue Gel beads (Bio-Rad) were soaked with 0.7 mg/ml recombinant mouse VEGF 164 aa (R&D systems) or BSA as a control. Whole-mount in situ hybridization for erg and apinr was performed as described^29.
as §1

tubulin proteins = experiment: Quantitative mass spectrometry of tubulins in HUVECs; type: cell-based, human; conditions: 250 μM TBZ, 24 hours
Procedure: Following alkylation, samples were diluted in digestion buffer (50 mM Tris-HCl, pH 8.0, 2 mM CaCl2) to a final 2,2,2-trifluoroethanol concentration of 5% (v/v) and digested using proteomics grade trypsin (Sigma) at 1:50 (enzyme/protein) concentration and incubated at 37° C. for 4-5 h. Digestion was halted with the addition of 1% formic acid (v/v), and sample volume was reduced to 200 μl by SpeedVac centrifugation prior to loading on […] (Thermo). Samples were eluted (60% acetonitrile, 0.1% formic acid), reduced to 10 μl by SpeedVac centrifugation, and resuspended in sample buffer (5% acetonitrile, 0.1% formic acid). Tryptic peptides were then filtered through Microcon 10-kDa centrifugal filters (Millipore), and collected as flow-through. Peptides were chromatographically separated on a Zorbax reverse-phase C-18 column (Agilent) via a 230 min 5-38% acetonitrile gradient, then analyzed by on-line nanoelectrospray-ionization tandem mass spectrometry on an LTQ-Orbitrap (Thermo Scientific). […] Differential expression of proteins across TBZ-treated and control samples was quantified from the MS2 spectral count data using the APEX method of relative quantification^32.

HUVECs = experiment: HUVEC cytoskeleton imaging (actin stress fibers, β-tubulin immunohistochemistry)
Procedure: Alexa Fluor 488 phalloidin (Invitrogen) and/or 4′,6-Diamidino-2-phenylindole (Sigma) were added as needed.

[3] = mice; cited from earlier work
[4] = short-term or long-term studies at doses up to 15 times the usual human dose; cited from earlier work

With `c1ccc2[nH]c(-c3cscn3)nc2c1` [TBZ, 4-(1H-1,3-benzodiazol-2-yl)-1,3-thiazole] the “somitic muscle, defined with the 12/101 antibody” value (Xenopus embryos; 250 μM TBZ, 1% DMSO, treated at stage 31, imaged at stages 35-36, compared to 1% DMSO control) was “normal”, the “overall morphology and patterning of treated Xenopus embryos” value (Xenopus embryos; at the stages when the vasculature was severely disrupted) was “grossly normal” and the “exposure time after which established blood vessels disintegrated” value ([1]; Kdr-GFP transgenic embryos) was “approximately 90 minutes”. The “growth and sprouting of blood vessels” value ([1]; Kdr-GFP transgenic embryos, time-lapse confocal microscopy) was “completely prevented”, the “persistence of vascular gene expression in dispersed, rounded kdr-GFP+ endothelial cells after treatment” value ([1]; in vivo) was “up to 17 hours” and the “time within which endothelial cells retract from one another and round up” value ([1]; in vivo imaging of the vasculature) was at most 2 h. For the same molecule, the “recovery of vasculature after washout of the drug” value ([1]; washout after TBZ-induced cell dispersal and rounding) was “significant re-spreading of endothelial cells and re-formation of blood vessels”, the “concentration at which angiogenesis inhibition was observed” value ([2]; Xenopus embryos in vivo) was 100 to 250 µM and the “angiogenesis, expression of vascular-specific genes apinr and erg” value ([2]; Xenopus embryos, 250 μM TBZ in 1% DMSO, treated at stage 31, imaged at stages 35-36) was “severely impaired angiogenesis”. For the same molecule, the “disruption of pre-existing vasculature” value ([2]; treatment at later stages (stage 36), in situ hybridization versus apinr at stage 39) was “overt breakdown of established vasculature”, the “abundance of several tubulin proteins” value (tubulin proteins) was “significant reduction” and the actin stress fibers (HUVECs; 250 μM TBZ versus 1% DMSO control) was “disorganization of actin stress fibers”. The “gross organization of the MT cytoskeleton” value (HUVECs; HUVEC cells in culture, 250 μM TBZ) was “only a very slight effect”, the effect on fertility [3] was “does not appear to affect fertility” and the carcinogenic effects [4] was “no carcinogenic effects”.
